This passage reports EC50 results from US9682976B2, “Protein kinase C inhibitors and uses thereof” (Rigel Pharmaceuticals, Inc., priority 2012, dated 2017).

The structures appear in SMILES notation. pEC50: −log10 of the molar value. Bounds are passed on as bounds.

For orientation: pEC50 means the negative decadic logarithm of the EC50, by convention in mol/L.

The test deals with PKC mediated IL-2 production. Kind of test: IL-2 ELISA, human primary T cell, anti CD3+CD28+. The format is cell-based. The conditions noted are these: human primary T cells stimulated with αCD3 and αCD28, 24 hours. As for the experimental part: Compounds 1-328 were tested in a whole cell functional assay for PKC mediated IL-2 production as follows. Human primary T cell isolation and culture: Human primary T cells were prepared as follows. Whole blood was obtained from a healthy volunteer, mixed 1:1 with PBS, layered on to Ficoll Hypaque (Amersham Pharmacia Biotech, Piscataway, N.J., Catalog #17-1440-03) in 2:1 blood/PBS:ficoll ratio and centrifuged for 30 minutes at 4° C. at 1750 rpm. The cells at the serum: ficoll interface were recovered and washed twice with 5 volumes of PBS. These freshly isolated human peripheral blood mononuclear cells were cultured in Yssel's medium containing 40 U/ml IL2 in a flask pre-coated with […] αCD3 and 5 μg/ml αCD28 (Anti-Human CD3, BD Pharmingen Catalog #555336, Anti-Human CD28, Beckman Coulter Catalog #IM1376). The cells were stimulated for 3-4 days, then transferred to a fresh flask and maintained in RPMI (RPMI-1640 with L-Glutamine; Mediatech, Inc., Herndon Va., cat. #10-040-CM) with 10% FBS and 40 U/ml IL-2. The primary T-cells were then washed twice with PBS to remove the IL-2.
Primary T cell stimulation and IL2 ELISA: Human primary T cells (100,000 cells per well) were pre-incubated with or without test compound in Yssel's medium for 1 hour at 37° C. Cells were then stimulated by transferring them to round-bottom 96-well plates pre-coated with […] αCD3 and 5 μg/ml αCD28. For counter assay, cells were instead stimulated by adding 8× stock solutions of PMA and ionomycin in Yssels (for final concentrations of 0.5 ng/ml PMA and 0.1 uM ionomycin, both from Calbiochem). Cells were incubated at 37° C. for 24 hours before 100 μL supernatants were harvested for quantification of IL-2 by ELISA using Human IL-2 Duoset ELISA Kit from R and D Systems, Cat. # DY202E.
Background: In an ELISA, binding on a coated surface is turned into a signal by an enzyme label.

`CC1(C)CC[C@H]2C[C@@H](Nc3nc(Nc4ccc(OC5CC(O)C5)c(Cl)c4)ncc3F)CCN21` (stereo partly drawn) [Compound 312, 3-(2-Chloro-4-((4-(((7S,8aS)-3,3-dimethyloctahydroindolizin-7-yl)amino)-5-fluoropyrimidin-2-yl)amino)phenoxy)cyclobutan-1-ol] gave a pEC50 (Homo sapiens, T-cell, 24 h) of 6.30 to 7.00.
On the same count and under the same terms, then `COc1cc(Nc2ncc(Cl)c(N[C@@H]3C[C@@H]4CCCN4C(C)(C)C3)n2)cc(OC)c1OC` [Compound 183, 5-chloro-N4-((7R,8aS)-5,5-dimethyloctahydroindolizin-7-yl)-N2-(3,4,5-trimethoxyphenyl)pyrimidine-2,4-diamine], with 5.00 to 6.00.
Still for that read-out and setting: the figure for `CC1(C)C[C@H](Nc2nc(Nc3ccc(OC4CCNCC4O)c(Cl)c3)ncc2F)C[C@@H]2CCCN21` (stereo partly drawn) [Compound 124] is 6.30 to 7.00.
`Cn1nnn(-c2cc(Nc3ncc(F)c(N[C@@H]4CCN5[C@@H](CCC5(C)C)C4)n3)c(F)cc2C2CC2)c1=O` (single isomer, unassigned) [Compound 36] gave a pEC50 of 5.00 to 6.00.
In turn, `CC1(C)C[C@H](Nc2nc(Nc3ccc(OC4CCNCC4)c(OC(F)F)c3)ncc2F)C[C@@H]2CCCN21` [Compound 128, N^2-(3-(difluoromethoxy)-4-(piperidin-4-yloxy)phenyl)-N^4-((7R,8aS)-5,5-dimethyloctahydroindolizin-7-yl)-5-fluoropyrimidine-2,4-diamine] gave a pEC50 (Homo sapiens, T-cell, 24 h) of 6.30 to 7.00.
On the same count and under the same terms, the figure for `Cn1nnn(-c2cc(Nc3ncc(F)c(N[C@@H]4C[C@@H]5CCCN5C(C)(C)C4)n3)c(F)cc2OCC2(C)COC2)c1=O` [Compound 159, 1-(5-((4-(((7R,8aS)-5,5-dimethyloctahydroindolizin-7-yl)amino)-5-fluoropyrimidin-2-yl)amino)-4-fluoro-2-((3-methyloxetan-3-yl)methoxy)phenyl)-4-methyl-1,4-dihydro-5H-tetrazol-5-one] is 6.30 to 7.00; for `CC1(C)C[C@H](Nc2nc(Nc3ccc(OCCO)c(C(F)(F)F)c3)ncc2F)C[C@@H]2CCCN21` [Compound 131, 2-(4-((4-(((7R,8aS)-5,5-dimethyloctahydroindolizin-7-yl)amino)-5-fluoropyrimidin-2-yl)amino)-2-(trifluoromethyl)phenoxy)ethan-1-ol] it is over 7.00.
The same measure, in the same setting: the figure for `Cn1nnn(-c2cc(Nc3ncc(F)c(N[C@@H]4C[C@@H]5C[C@@H](O)CN5C(C)(C)C4)n3)c(F)cc2C2CC2)c1=O` [Compound 68, 1-(5-(4-((2R,7R,8aR)-2-hydroxy-octahydro-5,5-dimethylindolizin-7-ylamino)-5-fluoropyrimidin-2-ylamino)-2-cyclopropyl-4-fluorophenyl)-4-methyl-1H-tetrazol-5(4H)-one] is 6.30 to 7.00; for `CC1(C)C[C@H](Nc2nc(Nc3ccc4c(c3)-n3nnnc3C(CO)(CO)O4)ncc2F)C[C@@H]2CCCN21` [Compound 125, (8-((4-(((7R,8aS)-5,5-dimethyloctahydroindolizin-7-yl)amino)-5-fluoropyrimidin-2-yl)amino)-4H-benzo[b]tetrazolo[1,5-d][1,4]oxazine-4,4-diyl)dimethanol] it is 5.00 to 6.00; for `Cn1nnn(-c2cc(Nc3ncc(F)c(N[C@@H]4C[C@@H]5CCCN5C(C)(C)C4)n3)c(F)cc2OCC(O)CO)c1=O` (stereo partly drawn) [Compound 199, 1-(2-(2,3-dihydroxypropoxy)-5-((4-(((7R,8aS)-5,5-dimethyloctahydroindolizin-7-yl)amino)-5-fluoropyrimidin-2-yl)amino)-4-fluorophenyl)-4-methyl-1,4-dihydro-5H-tetrazol-5-one] it is 6.00 to 6.30.
The same measure, in the same setting: then `Cn1nnn(-c2cc(Nc3ncc(F)c(N[C@@H]4C[C@@H]5CCCN5C(C)(C)C4)n3)c(F)cc2OCC2(CO)COC2)c1=O` [Compound 165, 1-(5-((4-(((7R,8aS)-5,5-dimethyloctahydroindolizin-7-yl)amino)-5-fluoropyrimidin-2-yl)amino)-4-fluoro-2-((3-(hydroxymethyl)oxetan-3-yl)methoxy)phenyl)-4-methyl-1,4-dihydro-5H-tetrazol-5-one], with 6.00 to 6.30; and `CC1(C)C[C@H](Nc2nc(Nc3ccc(OCC(O)CO)c(-n4cnnn4)c3)ncc2F)C[C@@H]2CCCN21` (stereo partly drawn) [Compound 214, 3-(4-((4-(((7R,8aS)-5,5-dimethyloctahydroindolizin-7-yl)amino)-5-fluoropyrimidin-2-yl)amino)-2-(1H-tetrazol-1-yl)phenoxy)propane-1,2-diol], with 6.30 to 7.00; and `CC1(C)C[C@H](Nc2nc(Nc3cc(-n4nnnc4C4CC4)c(O)cc3F)ncc2F)C[C@@H]2CCCN21` [Compound 256, 4-(4-((7R,8aS)-octahydro-5,5-dimethylindolizin-7-ylamino)-5-fluoropyrimidin-2-ylamino)-2-(5-cyclopropyl-1H-tetrazol-1-yl)-5-fluorophenol], with 5.00 to 6.00.
Regarding `C[S+]([O-])c1nnnn1-c1cccc(Nc2ncc(F)c(N[C@@H]3C[C@@H]4CCCN4C(C)(C)C3)n2)c1` (stereo partly drawn) [Compound 270, 5-fluoro-N4-((7R,8aS)-octahydro-5,5-dimethylindolizin-7-yl)-N2-(3-(5-(methylsulfinyl)-1H-tetrazol-1-yl)phenyl)pyrimidine-2,4-diamine], the pEC50 (Homo sapiens, T-cell, 24 h) was 6.00 to 6.30.
On the same count and under the same terms, the figure for `[2H]C([2H])(O)C([2H])([2H])Oc1ccc(Nc2ncc(F)c(N[C@@H]3C[C@@H]4CCCN4C(C)(C)C3)n2)cc1C#N` [Compound 210, 5-((4-(((7R,8aS)-5,5-dimethyloctahydroindolizin-7-yl)amino)-5-fluoropyrimidin-2-yl)amino)-2-(2-hydroxyethoxy-1,1,2,2-d4)benzonitrile] is over 7.00; for `CC1(C)C[C@H](Nc2nc(Nc3ccc4c(c3)-n3nnnc3C3(COC3)O4)ncc2F)C[C@@H]2CCCN21` [Compound 126, N^4-((7R,8aS)-5,5-dimethyloctahydroindolizin-7-yl)-5-fluoro-N^2-(spiro[benzo[b]tetrazolo[1,5-d][1,4]oxazine-4,3′-oxetan]-8-yl)pyrimidine-2,4-diamine] it is over 7.00.
The molecule `CC1(C)CC(Nc2nc(Nc3ccc(O[C@@H]4CCOC4)c(C#N)c3)ncc2F)CC2CCCN21` (single isomer, unassigned) [Compound 58] had a pEC50 of 5.00 to 6.00.
In the case of `C=Cc1cc(F)c(Nc2ncc(F)c(N[C@@H]3C[C@@H]4CCCN4C(C)(C)C3)n2)cc1-n1nnn(C)c1=O` [Compound 92, 1-(5-(4-((7R,8aS)-octahydro-5,5-dimethylindolizin-7-ylamino)-5-fluoropyrimidin-2-ylamino)-4-fluoro-2-vinylphenyl)-4-methyl-1H-tetrazol-5(4H)-one], the pEC50 (Homo sapiens, T-cell, 24 h) is over 7.00.
In turn, `COc1ccc(Nc2ncc(Cl)c(N[C@@H]3C[C@@H]4CCCN4C(C)(C)C3)n2)cc1-n1nnnc1C` [Compound 151, 5-chloro-N4-((7R,8aS)-5,5-dimethyloctahydroindolizin-7-yl)-N2-(4-methoxy-3-(5-methyl-1H-tetrazol-1-yl)phenyl)pyrimidine-2,4-diamine] showed a pEC50 (Homo sapiens, T-cell, 24 h) of over 7.00.
Same read-out and setting: then `COCCOc1ccc(Nc2ncc(F)c(N[C@@H]3C[C@@H]4CCCN4C(C)(C)C3)n2)cc1-n1cnnn1` [Compound 202, N4-((7R,8aS)-5,5-dimethyloctahydroindolizin-7-yl)-5-fluoro-N2-(4-(2-methoxyethoxy)-3-(1H-tetrazol-1-yl)phenyl)pyrimidine-2,4-diamine], with over 7.00.
The same measure, in the same setting: then `Cn1nnn(-c2cc(Nc3ncc(C#N)c(N[C@@H]4C[C@@H]5CCCN5C(C)(C)C4)n3)c(F)cc2C2CC2)c1=O` (racemic) [Compound 66, 4-((R/S,S/R)-Octahydro-5,5-dimethylindolizin-7-ylamino)-2-(4-cyclopropyl-2-fluoro-5-(4,5-dihydro-4-methyl-5-oxotetrazol-yl)phenylamino) pyrimidine-5-carbonitrile], with over 7.00; and `CC(O)COc1ccc(Nc2ncc(F)c(N[C@@H]3C[C@@H]4CCCN4C(C)(C)C3)n2)cc1-n1cnnn1` (stereo partly drawn) [Compound 206, 1-(4-((4-(((7R,8aS)-5,5-dimethyloctahydroindolizin-7-yl)amino)-5-fluoropyrimidin-2-yl)amino)-2-(1H-tetrazol-1-yl)phenoxy)propan-2-ol], with over 7.00.
The same measure, in the same setting: the figure for `[2H]C([2H])(O)C([2H])([2H])Oc1ccc(Nc2ncc(F)c(N[C@@H]3C[C@@H]4CCCN4C(C)(C)C3)n2)cc1OC` [Compound 217, 2-(4-((4-(((7R,8aS)-5,5-dimethyloctahydroindolizin-7-yl)amino)-5-fluoropyrimidin-2-yl)amino)-2-methoxyphenoxy)ethan-1,1,2,2-d4-1-ol] is under 5.00; for `COc1ccc(Nc2ncc(F)c(N[C@@H]3C[C@@H]4CCCN4C(C)(C)C3)n2)cc1-n1nnn(C2COC2)c1=O` [Compound 285, 1-(5-(4-((7R,8aS)-octahydro-5,5-dimethylindolizin-7-ylamino)-5-fluoropyrimidin-2-ylamino)-2-methoxyphenyl)-4-(oxetan-3-yl)-1H-tetrazol-5(4H)-one] it is 6.30 to 7.00.
